In patent US20230331707A1, “PROGRAMMED CELL NECROSIS INHIBITOR, PREPARATION METHOD THEREFOR, AND USE THEREOF” (Shanghai Institute of Organic Chemistry, Chinese Academy of …, priority 2020, published 2023):
Read-outs that look alike come from different tables or passages of the source.

Assays:
FADD−/− Jurkat cells = experiment: Inhibition of TNF-induced programmed necrosis of FADD deficient Jurkat cells (Cell Titer-Glo viability); type: cell-based; settings: for activity of inhibition of programmed necrosis compared with GSK2982772: human FADD-deficient Jurkat cells, TNFα alone or in combination with SM164
From the text: (§1) The adopted biological assay protocol was: the effect of compounds on programmed necroptosis of TNF-induced FADD (Fas-Associated Death Domain) deficient Jurkat cells and L929 cells.
(§2) In order to verify the inhibitory effect of the compounds of the present invention on programmed cell necrosis at the cellular level, cell types that is closely related to the RIP1 pathway, namely FADD deficient Jurkat cells (human peripheral blood leukemia T cell strain) and L929 cells, were selected. Two different stimulation methods were used: tumor necrosis factor (TNFα) was used alone, or TNFα was used in combination with mitochondria-derived cysteine aspartate activator (SMAC) SM164. Cells viability was calculated by detecting chemiluminescence values, thereby obtaining the biological activity of the compound on the inhibition of programmed cell necrosis.
(§3) Methods: FADD deficient Jurkat cells: FADD deficient Jurkat cells (human peripheral blood leukemia T cell line) were cultured in vitro. After growing to the logarithmic growth phase, the cells were collected, centrifuged at 1000 rpm for 5 min, the supernatant was discarded, and the cell concentration was adjusted to 2.5×10^5/mL. Cells were seeded into 384-well plates, 40 μl per well. 5 μL of SM164 (50 nM) diluted in cell culture medium and 5 μL of each compound were added to the corresponding wells. After pretreatment at 37° C. for 1 h, 5 μL of TNFα (50 ng/mL) diluted in cell culture medium was added to each well of the stimulation group, and 5 μL of the culture medium was added to the control group. The plate was cultured in a cell incubator (37° C., 5% CO2) for 14 h, and […] of Cell Titer-Glo solution was added to each well, then incubated for 30 min at room temperature, and intracellular ATP level was measured by detecting luminescence. The unstimulated DMSO control wells were taken as 100% cell viability. L929 cells: The L929 cells (mouse fibroblasts) were cultured in vitro, digested and diluted to 6.25×10^4/ml, and the cells were seeded into 384-well plates, 40 μl per well. The plate was placed in a cell incubator (37° C., 5% CO2) for 12 hours. 5 μL of SM164 (500 nM) diluted in cell culture medium and 5 μL of each compound were added to the corresponding wells. After pretreatment at 37° C. for 1 h, 5 μL of TNFα (500 ng/mL) diluted in cell culture medium was added to each well of the stimulation group, and 5 μL of the culture medium was added to the control group. After the plate was cultured for 14 h in a cell incubator (37° C., 5% CO2), 15 μl of Cell Titer-Glo solution was added to each well. The plate was incubated at room temperature for 30 min, and intracellular ATP level was measured by detecting luminescence. The unstimulated DMSO control wells were taken as 100% cell viability. EC50 values of the compounds were calculated using Prism Graphpad statistical software.

[1] = Liver microsomal stability test, mouse; type: in vitro ADME; settings: mouse, liver microsomes, mouse liver microsomes, NADPH, 37° C.; read-out: T1/2 (min) Mouse
From the text: (§4) The adopted biological test protocol was: testing the half-life of the compound in human- or mouse-derived liver microsomes.
(§5) Liver microsomes contain many enzymes involved in drug metabolism, especially cytochrome P-450, and therefore it is one of the major tissues involved in drug metabolism in living organisms. There are some correlations between the stability of the compound in liver microsomes and the pharmacogenetic stability thereof in vivo. Therefore, the relative stability of compounds in vivo can be roughly predicted by testing the half-life of different compounds in human- or mouse-derived liver microsomes. The specific methods were as follows:
(§6) Methods: 0.75 μL of 0.5 mM samples (compounds to be tested and control verapamil), 9.38 μL of 20 mg/mL liver microsomes (Human and Mouse) were taken and added to 239.88 μL PBS (on ice), and divided into 30 μL/tube samples respectively. The samples were incubated at 37° C. in a constant temperature water bath for 5 min, and then all samples were taken out. At zero-time, control group was added with 90 μL of ice acetonitrile first, and then added with 15 μL of 3 mM NADPH solution sequentially, and incubated at 37° C. in a constant temperature water bath. The corresponding samples were taken out after 5 min, 10 min, 20 min, 30 min and 60 min, respectively, and quenched by adding 90 μL of ice acetonitrile. All samples were centrifuged at 10000 rpm for 10 min, and the supernatants were taken and placed in a liquid phase vial waiting for LC-MS analysis.

[2] = Liver microsomal stability test, human; type: in vitro ADME; settings: human, liver microsomes, human liver microsomes, NADPH, 37° C.; read-out: T1/2 (min) Human
From the text: as §4, §5, §6

L929 cells = experiment: Inhibition of TNF-induced programmed necrosis of L929 cells (Cell Titer-Glo viability); type: cell-based, mouse
From the text: as §1, §2, §3

[3] = Homo sapiens, Jurkat, 14 h, FADD−/− Jurkat cells, stimulated with TNFα + SM164, read-out: EC50 (μM) FADD−/− Jurkat cells (human) TNFα + SM164
[4] = Homo sapiens, Jurkat, FADD−/− Jurkat cells, stimulated with TNFα alone, read-out: EC50 (μM) FADD−/− Jurkat cells (human) TNFα
[5] = Mus musculus, L929, L929 cells, stimulated with TNFα + SM164, read-out: EC50 (μM) L929 cells (mouse) TNFα + SM164
[6] = Mus musculus, L929, L929 cells, stimulated with TNFα alone, read-out: EC50 (μM) L929 cells (mouse) TNFα
[7] = FADD−/− Jurkat cells, stimulated with TNFα + SM164, read-out: EC50 (μM) FADD−/− Jurkat cells (human) TNFα + SM164
[8] = FADD−/− Jurkat cells, stimulated with TNFα alone, read-out: EC50 (μM) FADD−/− Jurkat cells (human) TNFα

Compound | EC50 (FADD−/− Jurkat cells; [3]) | EC50 (FADD−/− Jurkat cells; [4]) | EC50 (L929 cells; [5]) | EC50 (L929 cells; [6]) | also measured
Nc1ncnc2c1ncn2-c1ccc(CNC(=O)c2ccc(Cl)n2Cc2ccccc2)cc1 [ZSQ-21-18] | 80.6 nM | 6.57 nM | – | – | half-life at 1 µM [1]: 30.1 min; half-life at 1 µM [2]: 8.6 min
Cn1ncc(C(=O)NCc2ccc(-n3ccc4c(N)ncnc43)cc2)c1Cc1ccccc1 [QY-10-39, N-(4-(4-amino-7H-pyrrolo[2,3-d]pyrimidine-7-yl)benzyl)-5-benzyl-1-methyl-1H-pyrazole-4-carboxamide] | 2.95 nM | 0.07 nM | 96.1 nM | 10 nM | half-life at 1 µM [1]: 25.7 min
Cn1ncc(C(=O)NCc2ccc(-n3cnc4cc(C(=O)NCCN5CCOCC5)ccc43)cc2)c1Cc1ccccc1 [QY-11-68B] | 2.96 nM | 0.696 nM | 83.4 nM | 20.5 nM | half-life at 1 µM [1]: 34.7 min
COc1ccc2c(c1)ncn2-c1ccc(CNC(=O)c2cnn(C)c2Cc2ccccc2)cc1 [QY-11-102A] | – | – | 0.0793 nM | 0.00513 nM | EC50 (FADD−/− Jurkat cells; [7]): 0.0649 nM; EC50 (FADD−/− Jurkat cells; [8]): 0.00168 nM
Cn1nc(C(=O)NCc2ccc(-n3cnc4c(N)ncnc43)cc2)cc1Cc1ccccc1 [QY-8-31] | – | – | – | – | EC50 (L929 cells; L929 cells, stimulated with TNFα + SM164, read-out: EC50 (μM) L929 cells (mouse) TNFα + SM164): > 10000 nM; EC50 (L929 cells; L929 cells, stimulated with TNFα alone, read-out: EC50 (μM) L929 cells (mouse) TNFα): > 10000 nM; EC50 (FADD−/− Jurkat cells; [7]): 7400 nM; EC50 (FADD−/− Jurkat cells; [8]): 1300 nM
CC(NC(=O)c1cnn(C)c1Cc1ccccc1)c1ccc(-n2cnc3c(N)ncnc32)cc1 (centres unmarked) [QY-12-31] | 0.254 nM | 0.0967 nM | 0.569 nM | 0.356 nM | –
Cn1nc(Cl)c(C(=O)NCc2ccc(-n3cnc4c(N)ncnc43)cc2)c1Cc1ccccc1 [QY-12-100] | 0.734 nM | 0.172 nM | 4.63 nM | 0.458 nM | activity of inhibition of programmed necrosis compared with GSK2982772 (FADD−/− Jurkat cells): stronger activity
N#Cc1ccc(C(=O)NCc2ccc(-n3cnc4c(N)ncnc43)cc2)n1Cc1ccccc1 [QY-12-51] | 1860 nM | 214 nM | 3770 nM | 875 nM | –
CNC(=O)c1ccc2c(ccn2-c2ccc(CNC(=O)c3cc(Cc4ccccc4)n(C)n3)cc2)c1 [ZSQ-15-68] | 670 nM | 115 nM | 1800 nM | 610 nM | –
CN(C)CCNC(=O)c1ccc2c(c1)ncn2-c1ccc(CNC(=O)c2cnn(C)c2Cc2ccccc2)cc1 [QY-11-74B] | 3.73 nM | 0.293 nM | 0.687 nM | 0.386 nM | –
CNC(=O)c1ccc2c(c1)ncn2-c1ccc(CNC(=O)c2cn(Cc3ccccc3)nn2)cc1 [ZSQ-13-35] | 1590 nM | 233 nM | > 10000 nM | > 10000 nM | –
CN(C)CCNC(=O)c1ccc2ncn(-c3ccc(CNC(=O)c4cnn(C)c4Cc4ccccc4)cc3)c2c1 [QY-11-74A] | 368 nM | 53 nM | > 10000 nM | > 10000 nM | –
COc1ccc2ncn(-c3ccc(CNC(=O)c4cnn(C)c4Cc4ccccc4)cc3)c2c1 [QY-11-102B] | 0.306 nM | 0.0133 nM | 0.424 nM | 0.0278 nM | –
Nc1ncnc2c1ccn2-c1ccc(CNC(=O)c2n[nH]c(Cc3ccccc3)n2)cc1 [QY-8-60, N-(4-(4-amino-7H-pyrrolo[2,3-d]pyrimidine-7-yl)benzyl)-5-benzyl-1H-1,2,4-triazol-3-carboxamide] | > 10000 nM | > 10000 nM | > 10000 nM | > 10000 nM | –
Cn1ncc(C(=O)NCc2ccc(-n3cnc4ccc(C(=O)NCCN5CCOCC5)cc43)cc2)c1Cc1ccccc1 [QY-11-68A] | 3.79 nM | 0.581 nM | 1.58 nM | 161 nM | –
CN1CCN(CCNC(=O)c2ccc3ncn(-c4ccc(CNC(=O)c5cnn(C)c5Cc5ccccc5)cc4)c3c2)CC1 [QY-11-69A] | 194 nM | 3 nM | > 10000 nM | > 10000 nM | –
Nc1ncnc2c1ncn2-c1ccc(CNC(=O)c2ccc(F)n2Cc2ccccc2)cc1 [ZSQ-21-30] | 1.6 nM | 0.0853 nM | 7.41 nM | 0.916 nM | –
CCn1ncc(C(=O)NCc2ccc(-n3cnc4c(N)ncnc43)cc2)c1Cc1ccccc1 [QY-10-65] | 34.6 nM | 1.2 nM | 73.8 nM | 22.1 nM | –
Cn1ncc(C(=O)NCc2ccc(-c3ccnc4[nH]ccc34)cc2)c1Cc1ccccc1 [QY-11-79] | 747 nM | 152 nM | > 10000 nM | > 10000 nM | –
COc1cc2ncnc(-c3ccc(CNC(=O)c4cnn(C)c4Cc4ccccc4)cc3)c2cc1OC [QY-11-75] | 1500 nM | 233 nM | > 10000 nM | > 10000 nM | –
CNC(=O)c1ccc2c(c1)ncn2-c1ccc(CC(=O)N(O)Cc2ccccc2)cc1 [QY-5-62, 1-(4-(2-(benzyl(hydroxy)amino)-2-oxoethyl)phenyl)-N-methyl-1H-benzo[d]imidazol-5-formamide] | – | – | > 10000 nM | 3800 nM | EC50 (FADD−/− Jurkat cells; Homo sapiens, Jurkat, 14 h, read-out: EC50 (μM) FADD−/− Jurkat cells (human) TNFα + SM164): 98 nM; EC50 (FADD−/− Jurkat cells; Homo sapiens, Jurkat, read-out: EC50 (μM) FADD−/− Jurkat cells (human) TNFα): 4.98 nM
Nc1ncnc2c1ccn2-c1ccc(CNC(=O)c2ncc(Cc3ccccc3)o2)cc1 [QY-8-30, N-(4-(4-amino-7H-pyrrolo[2,3-d]pyrimidine-7-yl)benzyl)-5-benzyloxazol-2-carboxamide] | 13 nM | 11.2 nM | 6300 nM | 829 nM | –
COc1cnc2c(c1)ncn2-c1ccc(CNC(=O)c2nnn(C)c2Cc2ccccc2)cc1 [ET-0934] | 15.5 nM | 0.489 nM | 558 nM | 16.6 nM | –
Cn1nnc(C(=O)NCc2ccc(-n3cnc4cc(C#N)ccc43)cc2)c1Cc1ccccc1 [QY-15-59] | – | 0.00767 nM | 0.001 nM | 0.001 nM | activity of inhibition of programmed necrosis compared with GSK2982772 (FADD−/− Jurkat cells): stronger activity
Cn1nc(C(=O)NCc2ccc(-n3ncc4c(N)ncnc43)cc2)cc1Cc1ccccc1 [ZSQ-15-48] | 451 nM | 70.9 nM | > 10000 nM | 6550 nM | –
CNC(=O)c1ccc2c(c1)ncn2-c1ccc(CNC(=O)c2n[nH]c(Cc3ccccc3)n2)cc1 [ZSQ-13-46] | > 10000 nM | > 10000 nM | > 10000 nM | > 10000 nM | –
